Assay results reported in patent publication US9969737B2, “Fluorescent carbapenems” (Hans Rudolf Pfaendler, priority 2010, dated 2018).

Key:
[1] = comparison; cited from earlier work
[2] = system: Pseudomonas aeruginosa (IMP, Heidelberg); assay: Detection of metallo-carbapenemases in PBS during incubation; type: cell-based; conditions: 100 μg, five drops inoculum McFarland 0.5, over night at 37° C.
Experimental: (§1) Detection of metallo-carbapenemases by fluorogenic potassium-(4S,5R,6S)-3-(4-acetyl-phenyl)-6-((1′R)-hydroxy-ethyl)-4-methyl-7-oxo-1-aza-bicyclo[3.2.0]hept-2-ene-2-carboxylate in PBS during incubation
(§2) Bacterial strains Klebsiella pneumoniae (VIM-1, Heidelberg) and Pseudomonas aeruginosa (IMP, Heidelberg) were grown over night at 37° C. in Mueller-Hinton-Broth (10 ml). To each PBS (1 ml) of fluorogenic carbapenem (100 μg) were added five drops of corresponding inoculum (McFarland 0.5).

[3] = system: Klebsiella pneumoniae (VIM-1, Heidelberg); assay: as above; type: cell-based; conditions: 100 μg, five drops inoculum McFarland 0.5, over night at 37° C.
Experimental: as §1, §2

[4] = system: Pseudomonas aeruginosa DSM 1117 (no resistance); assay: Detection of carbapenemases during chemical lysis; type: biochemical; conditions: McFarland 10 in detergent buffer solution, 100 μg, 6 h at 37° C.
Experimental: (§3) Detection of carbapenemases by fluorogenic potassium-(4S,5R,6S)-3-(4-acetyl-phenyl)-6-((1′R)-hydroxy-ethyl)-4-methyl-7-oxo-1-aza-bicyclo[3.2.0]hept-2-ene-2-carboxylate during chemical lysis
(§4) Bacterial strains Pseudomonas aeruginosa DSM 1117 (no resistance), Pseudomonas aeruginosa (VIM-2, Heidelberg) and Klebsiella pneumoniae (KPC-2, Heidelberg) were incubated over night at 37° C. on Mueller-Hinton-Agar plates. A sample of each strain was suspended (McFarland 10) in primary-amine-free buffer solution (1 ml) of a detergent from Merck (Germany). Fluorogenic carbapenem (100 μg) was added.

[5] = system: Pseudomonas aeruginosa (VIM-2, Heidelberg); assay: Detection of carbapenemases during chemical lysis; type: biochemical; conditions: McFarland 10 in detergent buffer solution, 100 μg, 6 h at 37° C.
Experimental: as §3, §4

[6] = system: Klebsiella pneumoniae (KPC-2, Heidelberg); assay: Detection of carbapenemases during chemical lysis; type: biochemical; conditions: McFarland 10 in detergent buffer solution, 100 μg, 6 h at 37° C.
Experimental: as §3, §4

[7] = system: Pseudomonas aeruginosa (GES-2, Heidelberg); assay: Detection of carbapenemases during incubation in Mueller-Hinton-Broth; type: cell-based; conditions: McFarland 0.5, 100 μg, over night at 37° C.
Experimental: (§5) Detection of carbapenemases by fluorogenic potassium-(4S,5R,6S)-3-(4-acetyl-phenyl)-6-((1′R)-hydroxy-ethyl)-4-methyl-7-oxo-1-aza-bicyclo[3.2.0]hept-2-ene-2-carboxylate during incubation
(§6) Bacterial strains Escherichia coli (ESBL-1, Heidelberg), Escherichia coli (ESBL-2, Heidelberg), Escherichia coli (Oxa-48), Klebsiella pneumoniae (KPC-2, Heidelberg) Klebsiella pneumoniae (VIM-1, Heidelberg), Pseudomonas aeruginosa (GES-2, Heidelberg), Pseudomonas aeruginosa (IMP, Heidelberg) and Pseudomonas aeruginosa (VIM-2, Heidelberg) were grown over night at 37° C. in Mueller-Hinton-Broth (10 ml). To each sample (1 ml, McFarland 0.5) was added fluorogenic carbapenem (100 μg).

[8] = system: Escherichia coli (ESBL-1, Heidelberg); assay: as above; type: cell-based; conditions: ESBL-producer, McFarland 0.5, 100 μg, over night at 37° C.
Experimental: as §5, §6

[9] = system: Escherichia coli (ESBL-2, Heidelberg); assay: as above; type: cell-based; conditions: ESBL-producer, McFarland 0.5, 100 μg, over night at 37° C.
Experimental: as §5, §6

[10] = system: Escherichia coli (Oxa-48); assay: as above; type: cell-based; conditions: McFarland 0.5, 100 μg, over night at 37° C.
Experimental: as §5, §6

[11] = system: Pseudomonas aeruginosa (VIM-2, Heidelberg); assay: as above; type: cell-based; conditions: McFarland 0.5, 100 μg, over night at 37° C.
Experimental: as §5, §6

[12] = system: Pseudomonas aeruginosa (IMP, Heidelberg); assay: as above; type: cell-based; conditions: McFarland 0.5, 100 μg, over night at 37° C.
Experimental: as §5, §6

[13] = system: Klebsiella pneumoniae (KPC-2, Heidelberg); assay: as above; type: cell-based; conditions: McFarland 0.5, 100 μg, over night at 37° C.
Experimental: as §5, §6

[14] = system: Klebsiella pneumoniae (VIM-1, Heidelberg); assay: as above; type: cell-based; conditions: McFarland 0.5, 100 μg, over night at 37° C.
Experimental: as §5, §6

[15] = system: Pseudomonas aeruginosa (GES-2, Heidelberg); assay: Detection of carbapenemases during optimized incubation; type: cell-based; conditions: pre-incubated 6 h at 37° C. (220 rpm), 100 μg, over night at 37° C.
Experimental: (§7) Detection of carbapenemases by fluorogenic potassium-(4S,5R,6S)-3-(4-acetyl-phenyl)-6-((1′R)-hydroxy-ethyl)-4-methyl-7-oxo-1-aza-bicyclo[3.2.0]hept-2-ene-2-carboxylate during optimized incubation
as §6, with “Heidelberg),” for “Heidelberg) and”, “incubated for 6 h” for “grown over night”, “C. (220 rpm)” for “C.”, “ml) using 45-ml-Falcon-tubes.” for “ml).”, “ml)” for “ml, McFarland 0.5)”, “μg) using 15-ml-Falcon-tubes.” for “μg).”

[16] = system: Escherichia coli (ESBL-1, Heidelberg); assay: as above; type: cell-based; conditions: ESBL-producer, pre-incubated 6 h at 37° C. (220 rpm), 100 μg, over night at 37° C.
Experimental: as §7
as §6, with “Heidelberg),” for “Heidelberg) and”, “incubated for 6 h” for “grown over night”, “C. (220 rpm)” for “C.”, “ml) using 45-ml-Falcon-tubes.” for “ml).”, “ml)” for “ml, McFarland 0.5)”, “μg) using 15-ml-Falcon-tubes.” for “μg).”

[17] = system: Escherichia coli (ESBL-2, Heidelberg); assay: as above; type: cell-based; conditions: ESBL-producer, pre-incubated 6 h at 37° C. (220 rpm), 100 μg, over night at 37° C.
Experimental: as §7
as §6, with “Heidelberg),” for “Heidelberg) and”, “incubated for 6 h” for “grown over night”, “C. (220 rpm)” for “C.”, “ml) using 45-ml-Falcon-tubes.” for “ml).”, “ml)” for “ml, McFarland 0.5)”, “μg) using 15-ml-Falcon-tubes.” for “μg).”

[18] = system: Escherichia coli (Oxa-48); assay: as above; type: cell-based; conditions: pre-incubated 6 h at 37° C. (220 rpm), 100 μg, over night at 37° C.
Experimental: as §7
as §6, with “Heidelberg),” for “Heidelberg) and”, “incubated for 6 h” for “grown over night”, “C. (220 rpm)” for “C.”, “ml) using 45-ml-Falcon-tubes.” for “ml).”, “ml)” for “ml, McFarland 0.5)”, “μg) using 15-ml-Falcon-tubes.” for “μg).”

[19] = system: Pseudomonas aeruginosa (VIM-2, Heidelberg); assay: as above; type: cell-based; conditions: pre-incubated 6 h at 37° C. (220 rpm), 100 μg, over night at 37° C.
Experimental: as §7
as §6, with “Heidelberg),” for “Heidelberg) and”, “incubated for 6 h” for “grown over night”, “C. (220 rpm)” for “C.”, “ml) using 45-ml-Falcon-tubes.” for “ml).”, “ml)” for “ml, McFarland 0.5)”, “μg) using 15-ml-Falcon-tubes.” for “μg).”

[20] = system: Pseudomonas aeruginosa (IMP, Heidelberg); assay: as above; type: cell-based; conditions: pre-incubated 6 h at 37° C. (220 rpm), 100 μg, over night at 37° C.
Experimental: as §7
as §6, with “Heidelberg),” for “Heidelberg) and”, “incubated for 6 h” for “grown over night”, “C. (220 rpm)” for “C.”, “ml) using 45-ml-Falcon-tubes.” for “ml).”, “ml)” for “ml, McFarland 0.5)”, “μg) using 15-ml-Falcon-tubes.” for “μg).”

[21] = system: Klebsiella pneumoniae (KPC-2, Heidelberg); assay: as above; type: cell-based; conditions: pre-incubated 6 h at 37° C. (220 rpm), 100 μg, over night at 37° C.
Experimental: as §7
as §6, with “Heidelberg),” for “Heidelberg) and”, “incubated for 6 h” for “grown over night”, “C. (220 rpm)” for “C.”, “ml) using 45-ml-Falcon-tubes.” for “ml).”, “ml)” for “ml, McFarland 0.5)”, “μg) using 15-ml-Falcon-tubes.” for “μg).”

[22] = system: Klebsiella pneumoniae (VIM-1, Heidelberg); assay: as above; type: cell-based; conditions: pre-incubated 6 h at 37° C. (220 rpm), 100 μg, over night at 37° C.
Experimental: as §7
as §6, with “Heidelberg),” for “Heidelberg) and”, “incubated for 6 h” for “grown over night”, “C. (220 rpm)” for “C.”, “ml) using 45-ml-Falcon-tubes.” for “ml).”, “ml)” for “ml, McFarland 0.5)”, “μg) using 15-ml-Falcon-tubes.” for “μg).”

[23] = target: T1, Klebsiella pneumoniae carbapenemases (KPC), KPC-2 (Klebsiella pneumoniae, UniProt Q9F663); assay: Detection of KPC carbapenemase by fluorogenic carbapenem after physical disruption by sonication; type: biochemical; conditions: cells lysed by sonication, PBS, 100 μg carbapenem, room temperature for 5 min
T1 construct: endogenous in cells; host or cells: Klebsiella pneumoniae clinical strain (KPC-2, Heidelberg), lysed by sonication
T1 sequence (Q9F663 25-293 limits assumed): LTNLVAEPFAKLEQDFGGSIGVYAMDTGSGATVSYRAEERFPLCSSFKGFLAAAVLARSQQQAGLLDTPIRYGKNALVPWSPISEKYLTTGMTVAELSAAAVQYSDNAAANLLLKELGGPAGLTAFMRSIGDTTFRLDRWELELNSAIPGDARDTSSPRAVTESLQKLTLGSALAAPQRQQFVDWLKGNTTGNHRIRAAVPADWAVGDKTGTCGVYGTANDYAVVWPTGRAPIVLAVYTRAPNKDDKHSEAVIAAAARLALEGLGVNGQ
Experimental: Detection of Klebsiella pneumoniae carbapenemases (KPC) by fluorogenic potassium-(4S,5R,6S)-3-(4-acetyl-phenyl)-6-((1′R)-hydroxy-ethyl)-4-methyl-7-oxo-1-aza-bicyclo[3.2.0]hept-2-ene-2-carboxylate after physical disruption by sonication
(§8) Bacterial strain Klebsiella pneumoniae (producing KPC-2, Heidelberg) was grown over night at 37° C. (220 rpm) in Mueller-Hinton-Broth (10 ml) using a 45-ml-Falcon tube, harvested by centrifugation at 13.000 rpm (2 min, 1 ml for analytical studies, McFarland 10), washed once with PBS (1 ml), and resuspended in PBS (500 μl). Subsequently the cells were lysed by sonication with a Bandelin Sonopuls (5×15 s), pulsed at 80% max. power. Further PBS (500 μl) and fluorogenic carbapenem (100 μg) were added.

[24] = target: T1, Klebsiella pneumoniae carbapenemases (KPC), KPC-2; assay: Detection of KPC carbapenemase during sonication with glass beads; type: biochemical; conditions: sonication with glass beads in ultrasound bath, 100 μg, treatment for 45 min
Experimental: Detection of Klebsiella pneumoniae carbapenemases (KPC) by fluorogenic potassium-(4S,5R,6S)-3-(4-acetyl-phenyl)-6-((1′R)-hydroxy-ethyl)-4-methyl-7-oxo-1-aza-bicyclo[3.2.0]hept-2-ene-2-carboxylate during physical disruption by sonication with glass beads
Bacterial strain Klebsiella pneumoniae (producing KPC-2, Heidelberg) was grown over night at 37° C. in Mueller-Hinton-Broth (10 ml). To a sample (1 ml, McFarland 0.5) were added fluorogenic carbapenem (100 μg) and glass beads (100 mg, Sigma-Aldrich, G9018, 150-212 μm, unwashed) using a 5-ml-glass-tube with a plane bottom. The cells were lysed by sonication with a commercial available ultrasound bath.

Oxa-48-carbapenemases = target: T2, Oxa-48-carbapenemases (Klebsiella pneumoniae, UniProt Q6XEC0); assay: Detection of inducible (Oxa-type) carbapenemases after sonication; type: biochemical, Escherichia coli
T2 construct: endogenous in cells; host or cells: Escherichia coli strain (producing Oxa-48, Heidelberg), with or without imipenem induction, lysed by sonication
T2 sequence (Q6XEC0 23-265 limits assumed): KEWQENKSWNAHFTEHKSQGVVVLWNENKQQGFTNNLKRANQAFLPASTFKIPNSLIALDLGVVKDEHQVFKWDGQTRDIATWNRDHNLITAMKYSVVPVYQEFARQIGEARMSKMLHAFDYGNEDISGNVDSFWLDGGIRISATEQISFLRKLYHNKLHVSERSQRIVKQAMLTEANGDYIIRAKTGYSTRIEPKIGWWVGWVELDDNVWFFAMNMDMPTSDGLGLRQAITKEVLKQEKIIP
Experimental: Detection of inducible (Oxa-type) carbapenemases of Escherichia coli by fluorogenic potassium-(4S,5R,6S)-3-(4-acetyl-phenyl)-6-((1′R)-hydroxy-ethyl)-4-methyl-7-oxo-1-aza-bicyclo[3.2.0]hept-2-ene-2-carboxylate after physical disruption by sonication
as §8, with “Escherichia cog” for “Klebsiella pneumoniae”, “Oxa-48,” for “KPC-2,”, “tube. A sample (1 ml, McFarland 10) was diluted in Mueller-Hinton-Broth (10 ml) and incubated with Imipenem (2 μg/ml) for 4 h using a 45-ml-Falcon tube. After” for “tube, harvested by”, “studies), the sample was” for “studies, McFarland 10),”, “ml)” for “ml),”

Substance: Green Fluorescent Protein
- Stokes shift [1]: 114 nm

Substance: potassium-(4S,5R,6S)-3-(4-acetyl-phenyl)-6-((1′R)-hydroxy-ethyl)-4-methyl-7-oxo-1-aza-bicyclo[3.2.0]hept-2-ene-2-carboxylate [Example 1]
- disappearance of the green-yellow fluorescence colour (UV light λ=366 nm) [2]: disappearance of the green-yellow fluorescence colour
- disappearance of the green-yellow fluorescence colour (UV light λ=366 nm) [3]: disappearance of the green-yellow fluorescence colour
- change in fluorescence colour (λ=366 nm) [4]: did not show any change in fluorescence colour
- disappearance of the green-yellow fluorescence colour (λ=366 nm) [5]: disappearance of the green-yellow fluorescence colour
- disappearance of the green-yellow fluorescence colour (λ=366 nm) [6]: disappearance of the green-yellow fluorescence colour
- disappearance of the green-yellow fluorescence colour (UV light λ=366 nm) [7]: disappearance of the green-yellow fluorescence colour
- change in colour (fluorescence, UV light λ=366 nm) [8]: did not show any change in colour
- change in colour (fluorescence, UV light λ=366 nm) [9]: did not show any change in colour
- disappearance of the green-yellow fluorescence colour (UV light λ=366 nm) [10]: disappearance of the green-yellow fluorescence colour
- disappearance of the green-yellow fluorescence colour (UV light λ=366 nm) [11]: disappearance of the green-yellow fluorescence colour
- disappearance of the green-yellow fluorescence colour (UV light λ=366 nm) [12]: disappearance of the green-yellow fluorescence colour
- disappearance of the green-yellow fluorescence colour (UV light λ=366 nm) [13]: disappearance of the green-yellow fluorescence colour
- disappearance of the green-yellow fluorescence colour (UV light λ=366 nm) [14]: disappearance of the green-yellow fluorescence colour
- disappearance of the green-yellow fluorescence colour (λ=366 nm) [15]: disappearance of the green-yellow fluorescence colour
- change in fluorescence colour (λ=366 nm) [16]: did not show any change in fluorescence colour
- change in fluorescence colour (λ=366 nm) [17]: did not show any change in fluorescence colour
- disappearance of the green-yellow fluorescence colour (λ=366 nm) [18]: disappearance of the green-yellow fluorescence colour
- disappearance of the green-yellow fluorescence colour (λ=366 nm) [19]: disappearance of the green-yellow fluorescence colour
- disappearance of the green-yellow fluorescence colour (λ=366 nm) [20]: disappearance of the green-yellow fluorescence colour
- disappearance of the green-yellow fluorescence colour (λ=366 nm) [21]: disappearance of the green-yellow fluorescence colour
- disappearance of the green-yellow fluorescence colour (λ=366 nm) [22]: disappearance of the green-yellow fluorescence colour
- disappearance of the green-yellow fluorescence colour (UV light λ=366 nm) [23]: disappearance of the green-yellow fluorescence colour
- disappearance of the green-yellow fluorescence colour (λ=366 nm) [24]: disappearance of the green-yellow fluorescence colour
- disappearance of the green-yellow fluorescence colour (UV light λ=366 nm) (Oxa-48-carbapenemases; induced with Imipenem (2 μg/ml) for 4 h, lysed by sonication, PBS, room temperature for 5 min): disappearance of the green-yellow fluorescence colour
- change in fluorescence colour (Oxa-48-carbapenemases; non-induced sample, within 30 minutes): did not show any change in fluorescence colour
